Laboratory results from ChEMBL document CHEMBL2074558, “rOCT2 is a basolateral potential-driven carrier, not an organic cation/proton exchanger” (Am J Physiol, 1999).

How the values were obtained:
Assay type in all cases: functional, cell-based
[1] = molecular target: T1, Solute carrier family 22 member 2 (Rattus norvegicus, UniProt Q9R0W2); assay: TP_TRANSPORTER: inhibition of TEA uptake (apical to cell)(TEA: 100 uM, NMN: 5000 uM) in OCT2-expressing MDCK cells; settings: dog
T1 sequence (Q9R0W2 whole entry): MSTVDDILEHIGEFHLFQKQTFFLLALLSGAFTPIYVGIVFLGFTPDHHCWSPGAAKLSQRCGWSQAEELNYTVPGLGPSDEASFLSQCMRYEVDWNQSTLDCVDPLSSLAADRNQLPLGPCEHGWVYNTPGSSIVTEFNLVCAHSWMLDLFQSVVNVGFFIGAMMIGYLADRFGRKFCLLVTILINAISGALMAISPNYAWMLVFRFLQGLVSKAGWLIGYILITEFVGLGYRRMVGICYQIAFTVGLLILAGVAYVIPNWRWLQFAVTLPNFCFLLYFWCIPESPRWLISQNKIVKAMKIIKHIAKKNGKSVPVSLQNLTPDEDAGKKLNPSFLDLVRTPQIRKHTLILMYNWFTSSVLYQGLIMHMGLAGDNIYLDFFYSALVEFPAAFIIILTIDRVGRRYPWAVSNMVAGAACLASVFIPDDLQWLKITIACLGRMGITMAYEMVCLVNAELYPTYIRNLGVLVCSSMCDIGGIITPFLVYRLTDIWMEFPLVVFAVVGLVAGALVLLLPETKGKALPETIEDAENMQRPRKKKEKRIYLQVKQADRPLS

[2] = molecular target: T1, Solute carrier family 22 member 2; assay: TP_TRANSPORTER: TEA uptake (TEA: 200 uM, Quinacrine: 200 uM) in Xenopus laevis oocytes; settings: oocyte
[3] = molecular target: T1, Solute carrier family 22 member 2; assay: TP_TRANSPORTER: inhibition of TEA uptake (apical to cell)(TEA: 100 uM, Quinacrine: 200 uM) in OCT2-expressing MDCK cells; settings: dog
[4] = molecular target: T1, Solute carrier family 22 member 2; assay: TP_TRANSPORTER: TEA uptake (TEA: 200 uM, Quinine: 200 uM) in Xenopus laevis oocytes; settings: oocyte
[5] = molecular target: T1, Solute carrier family 22 member 2; assay: TP_TRANSPORTER: inhibition of TEA uptake (apical to cell)(TEA: 100 uM, Quinine: 200 uM) in OCT2-expressing MDCK cells; settings: dog

## CNC(=O)c1cccnc1 [NICOTINYL METHYLAMIDE]
[1]
  Activity: inhibitor [+]

## CCN(CC)CCCC(C)Nc1c2ccc(Cl)cc2nc2ccc(OC)cc12 (stereo not given) [QUINACRINE]
[2]
  Activity: inhibitor [+]
[3]
  Activity: inhibitor [+]

## C=C[C@H]1C[N@@]2CC[C@H]1C[C@H]2[C@H](O)c1ccnc2ccc(OC)cc12 [QUININE]
[4]
  Activity: inhibitor [+]
[5]
  Activity: inhibitor [+]
